In PubChem BioAssay (NCI):
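Dose response: 5 concentrations. Exposure: 48 h. Format: 96-well plates. Endpoint: linear interpolation; highest concentration if not reached. TGI: concentration producing complete growth inhibition.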

Assays:
Test in all cases: NCI tumour cell line growth inhibition, 48 h
[1] = test system: 786-0 renal
[2] = test system: A498 renal
[3] = test system: A549 NSCLC
[4] = test system: ACHN renal
[5] = test system: CAKI-1 renal
[6] = test system: CCRF-CEM leukemia
[7] = test system: COLO 205 colon
[8] = test system: DLD-1 colon
[9] = test system: DMS 114 small cell lung
[10] = test system: DMS 273 small cell lung
[11] = test system: EKVX NSCLC
[12] = test system: HCC-2998 colon
[13] = test system: HCT-116 colon
[14] = test system: HCT-15 colon
[15] = test system: HL-60(TB) leukemia
[16] = test system: HOP-18 NSCLC
[17] = test system: HOP-62 NSCLC
[18] = test system: HOP-92 NSCLC
[19] = test system: HT29 colon
[20] = test system: IGROV1 ovarian
[21] = test system: K-562 leukemia
[22] = test system: KM12 colon
[23] = test system: KM20L2 colon
[24] = test system: LOX IMVI melanoma
[25] = test system: LXFL 529 NSCLC
[26] = test system: M14 melanoma
[27] = test system: M19-MEL melanoma
[28] = test system: MALME-3M melanoma
[29] = test system: MOLT-4 leukemia
[30] = test system: NCI-H226 lung
[31] = test system: NCI-H23 lung
[32] = test system: NCI-H460 lung
[33] = test system: NCI-H522 lung
[34] = test system: OVCAR-3 ovarian
[35] = test system: OVCAR-4 ovarian
[36] = test system: OVCAR-5 ovarian
[37] = test system: OVCAR-8 ovarian
[38] = test system: RPMI-8226 leukemia
[39] = test system: RXF 393 renal
[40] = test system: RXF-631 renal
[41] = test system: SF-268 CNS
[42] = test system: SF-295 CNS
[43] = test system: SF-539 CNS
[44] = test system: SK-MEL-2 melanoma
[45] = test system: SK-MEL-28 melanoma
[46] = test system: SK-MEL-5 melanoma
[47] = test system: SK-OV-3 ovarian
[48] = test system: SN12C renal
[49] = test system: SNB-19 CNS
[50] = test system: SNB-75 CNS
[51] = test system: SNB-78 CNS
[52] = test system: SW-620 colon
[53] = test system: TK-10 renal
[54] = test system: U251 CNS
[55] = test system: UACC-257 melanoma
[56] = test system: UACC-62 melanoma
[57] = test system: UO-31 renal
[58] = test system: BT-549 breast
[59] = test system: DU-145 prostate
[60] = test system: HS 578T breast
[61] = test system: MCF7 breast
[62] = test system: MDA-MB-231 breast
[63] = test system: MDA-MB-435
[64] = test system: MDA-N
[65] = test system: NCI/ADR-RES ovarian
[66] = test system: PC-3 prostate
[67] = test system: SR leukemia
[68] = test system: T-47D breast
[69] = test system: XF 498 CNS

With C#CCN(Cc1ccc2nc(-c3ccccc3)c(Cl)nc2c1)c1cc(OC)c(OC)c(OC)c1 the TGI [1] was greater than 100 µM, the TGI [2] was greater than 100 µM and the TGI [3] was greater than 100 µM. For the same compound, the TGI [4] was greater than 100 µM, the TGI [5] was greater than 100 µM and the TGI [6] was greater than 100 µM. The TGI [7] was greater than 100 µM, the TGI [8] was greater than 100 µM and the TGI [9] was 51.8 µM. For the same compound, the TGI [10] was greater than 100 µM, the TGI [11] was greater than 100 µM and the TGI [12] was greater than 100 µM. It also gave a TGI [13] greater than 100 µM, a TGI [14] greater than 100 µM and a TGI [15] greater than 100 µM. For the same compound, the TGI [16] was greater than 100 µM, the TGI [17] was greater than 100 µM and the TGI [18] was greater than 100 µM. It also gave a TGI [19] greater than 100 µM, a TGI [20] greater than 100 µM and a TGI [21] greater than 100 µM. It also gave a TGI [22] greater than 100 µM, a TGI [23] greater than 100 µM and a TGI [24] of 40.4 µM. It also gave a TGI [25] greater than 100 µM, a TGI [26] greater than 100 µM and a TGI [27] greater than 100 µM. It also gave a TGI [28] greater than 100 µM, a TGI [29] greater than 100 µM and a TGI [30] greater than 100 µM. For the same compound, the TGI [31] was greater than 100 µM, the TGI [32] was greater than 100 µM and the TGI [33] was greater than 100 µM. The TGI [34] was greater than 100 µM, the TGI [35] was greater than 100 µM and the TGI [36] was greater than 100 µM. The TGI [37] was greater than 100 µM, the TGI [38] was 43.5 µM and the TGI [39] was greater than 100 µM. It also gave a TGI [40] greater than 100 µM, a TGI [41] greater than 100 µM and a TGI [42] greater than 100 µM. The TGI [43] was greater than 100 µM, the TGI [44] was greater than 100 µM and the TGI [45] was greater than 100 µM. It also gave a TGI [46] greater than 100 µM, a TGI [47] greater than 100 µM and a TGI [48] greater than 100 µM. For the same compound, the TGI [49] was greater than 100 µM, the TGI [50] was greater than 100 µM and the TGI [51] was greater than 100 µM. For the same compound, the TGI [52] was 34.2 µM, the TGI [53] was greater than 100 µM and the TGI [54] was greater than 100 µM. It also gave a TGI [55] greater than 100 µM, a TGI [56] greater than 100 µM and a TGI [57] greater than 100 µM.

O=c1oc2ccccc2c(O)c1C(C/C(CCN1CCCC1)=N/O)c1ccccc1 (configuration not stated) gave a TGI [1] greater than 100 µM, a TGI [2] greater than 100 µM and a TGI [3] greater than 100 µM. For the same compound, the TGI [4] was greater than 100 µM, the TGI [58] was greater than 100 µM and the TGI [5] was greater than 100 µM. It also gave a TGI [7] greater than 100 µM, a TGI [8] greater than 100 µM and a TGI [9] greater than 100 µM. It also gave a TGI [59] greater than 100 µM, a TGI [11] greater than 100 µM and a TGI [12] greater than 100 µM. For the same compound, the TGI [13] was greater than 100 µM, the TGI [14] was greater than 100 µM and the TGI [15] was greater than 31.6 µM. The TGI [17] was greater than 100 µM, the TGI [18] was greater than 100 µM and the TGI [60] was greater than 100 µM. For the same compound, the TGI [19] was greater than 100 µM, the TGI [20] was greater than 100 µM and the TGI [21] was greater than 31.6 µM. It also gave a TGI [22] greater than 100 µM, a TGI [23] greater than 100 µM and a TGI [24] greater than 100 µM. It also gave a TGI [25] greater than 100 µM, a TGI [26] greater than 100 µM and a TGI [27] greater than 100 µM. The TGI [28] was greater than 100 µM, the TGI [61] was greater than 100 µM and the TGI [62] was greater than 100 µM. For the same compound, the TGI [63] was greater than 100 µM, the TGI [64] was greater than 100 µM and the TGI [29] was greater than 100 µM. For the same compound, the TGI [30] was greater than 100 µM, the TGI [31] was greater than 100 µM and the TGI [32] was greater than 100 µM. It also gave a TGI [33] greater than 100 µM, a TGI [65] greater than 100 µM and a TGI [34] greater than 100 µM. For the same compound, the TGI [35] was greater than 100 µM, the TGI [36] was greater than 100 µM and the TGI [37] was greater than 100 µM. It also gave a TGI [66] greater than 100 µM, a TGI [38] greater than 100 µM and a TGI [39] greater than 100 µM. It also gave a TGI [40] greater than 100 µM, a TGI [41] greater than 100 µM and a TGI [42] greater than 100 µM. The TGI [43] was greater than 100 µM, the TGI [44] was greater than 100 µM and the TGI [45] was greater than 100 µM. For the same compound, the TGI [46] was greater than 100 µM, the TGI [47] was greater than 100 µM and the TGI [48] was greater than 100 µM. It also gave a TGI [49] greater than 100 µM, a TGI [50] greater than 100 µM and a TGI [67] greater than 100 µM. For the same compound, the TGI [52] was greater than 100 µM, the TGI [68] was greater than 100 µM and the TGI [53] was greater than 100 µM. The TGI [54] was greater than 100 µM, the TGI [55] was greater than 100 µM and the TGI [56] was greater than 100 µM. The TGI [57] was greater than 100 µM and the TGI [69] was greater than 100 µM.

CCC1(CN(C)C)CC/C(=C\c2ccc(OC)cc2)C1=O (configuration not stated) showed a TGI [1] greater than 100 µM, a TGI [2] greater than 100 µM and a TGI [3] greater than 100 µM. For the same compound, the TGI [4] was greater than 100 µM, the TGI [5] was greater than 100 µM and the TGI [6] was greater than 100 µM. The TGI [7] was greater than 100 µM, the TGI [8] was greater than 100 µM and the TGI [9] was greater than 100 µM. The TGI [10] was greater than 100 µM, the TGI [11] was greater than 100 µM and the TGI [12] was greater than 100 µM. It also gave a TGI [13] greater than 100 µM, a TGI [14] greater than 100 µM and a TGI [16] greater than 100 µM. The TGI [17] was greater than 100 µM, the TGI [18] was greater than 100 µM and the TGI [19] was greater than 100 µM. For the same compound, the TGI [20] was greater than 100 µM, the TGI [21] was greater than 100 µM and the TGI [22] was greater than 100 µM. For the same compound, the TGI [23] was greater than 100 µM, the TGI [24] was greater than 100 µM and the TGI [25] was greater than 100 µM. It also gave a TGI [26] greater than 100 µM, a TGI [27] greater than 100 µM and a TGI [28] greater than 100 µM. The TGI [29] was greater than 100 µM, the TGI [30] was greater than 100 µM and the TGI [31] was greater than 100 µM. The TGI [32] was greater than 100 µM, the TGI [33] was greater than 100 µM and the TGI [34] was greater than 100 µM. The TGI [35] was greater than 100 µM, the TGI [36] was greater than 100 µM and the TGI [37] was greater than 100 µM. The TGI [38] was greater than 100 µM, the TGI [39] was greater than 100 µM and the TGI [40] was greater than 100 µM. It also gave a TGI [41] greater than 100 µM, a TGI [42] greater than 100 µM and a TGI [43] greater than 100 µM. For the same compound, the TGI [44] was greater than 100 µM, the TGI [45] was greater than 100 µM and the TGI [46] was greater than 100 µM. It also gave a TGI [48] greater than 100 µM, a TGI [49] greater than 100 µM and a TGI [50] greater than 100 µM. For the same compound, the TGI [51] was greater than 100 µM, the TGI [52] was greater than 100 µM and the TGI [53] was greater than 100 µM. The TGI [54] was greater than 100 µM, the TGI [55] was greater than 100 µM and the TGI [56] was greater than 100 µM. For the same compound, the TGI [57] was greater than 100 µM.
